{"source": "patent US20120190751A1", "about": "“COMPOUNDS FOR TREATMENTS OF INFLAMMATION” (ANA-MAR AB, priority 2009, published 2012)", "key": {"[1]": {"target": "T1, 5-HT1A receptor (Homo sapiens, UniProt P08908)", "T1 sequence (P08908 1-422)": "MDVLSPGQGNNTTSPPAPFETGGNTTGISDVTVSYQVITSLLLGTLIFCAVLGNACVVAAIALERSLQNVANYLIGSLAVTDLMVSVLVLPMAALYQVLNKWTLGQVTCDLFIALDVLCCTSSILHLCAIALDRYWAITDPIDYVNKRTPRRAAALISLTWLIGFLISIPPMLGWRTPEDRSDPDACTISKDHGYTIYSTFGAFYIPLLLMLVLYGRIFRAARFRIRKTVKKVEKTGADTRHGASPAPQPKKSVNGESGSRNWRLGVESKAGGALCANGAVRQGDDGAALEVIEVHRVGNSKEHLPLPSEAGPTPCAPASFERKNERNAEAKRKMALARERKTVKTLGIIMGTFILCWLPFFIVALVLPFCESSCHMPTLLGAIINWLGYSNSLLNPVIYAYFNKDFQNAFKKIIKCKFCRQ", "assay": "Radio-ligand binding assay 5-HT1A", "conditions": "10 μM compound; [3H]-8-OH-DPAT 0.5 nM; human rec. HEK293 cells", "description": "(§1) Determination of binding affinities for various 5-HT receptors was performed by radio-ligand binding assays. Briefly, tissue or cells expressing the receptor of interest were suspended in incubation buffer and radio-ligands and 10 μM N-(2-chloro-3,4-dimethoxybenzylidene-amino)guanidine were added. After incubation, separation of bound and free radio-ligand was done by multiple washings with buffer.\n(§2) The results were presented as the percent inhibition of specific binding. The IC50 values were determined by a non-linear least square regression analysis using MathIQ™ (ID Business Solution Ltd., UK). The inhibition constants (Ki) were calculated using the equation of Cheng and Prusoff (Cheng Y, Prusoff W H, Biochem. Pharmacol. 22:3099-3108, 1973) using the observed IC50 of the tested compound, the concentration of radioligand employed in the assay and the historical values for the KD of the ligand."}, "[2]": {"target": "5-HT2A receptor (Homo sapiens, UniProt P28223)", "sequence (P28223 whole entry)": "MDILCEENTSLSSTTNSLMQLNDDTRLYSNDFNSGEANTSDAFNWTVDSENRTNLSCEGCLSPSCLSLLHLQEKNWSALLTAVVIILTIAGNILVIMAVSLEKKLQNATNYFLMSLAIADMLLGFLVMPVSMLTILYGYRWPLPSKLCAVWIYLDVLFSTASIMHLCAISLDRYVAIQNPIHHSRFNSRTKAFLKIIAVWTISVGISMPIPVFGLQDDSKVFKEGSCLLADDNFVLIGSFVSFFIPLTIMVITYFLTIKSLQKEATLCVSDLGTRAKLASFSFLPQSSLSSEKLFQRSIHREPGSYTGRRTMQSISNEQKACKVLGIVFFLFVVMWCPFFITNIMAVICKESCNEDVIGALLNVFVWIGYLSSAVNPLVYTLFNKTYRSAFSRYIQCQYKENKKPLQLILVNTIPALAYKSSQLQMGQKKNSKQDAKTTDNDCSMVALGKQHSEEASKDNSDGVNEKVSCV", "assay": "Radio-ligand binding assay 5-HT2A", "conditions": "10 μM compound; [3H]-Ketanserin 2 nM; human cortex", "description": "as §1, §2"}, "[3]": {"target": "T2, 5-HT4 receptor (Cavia porcellus, UniProt O70528)", "T2 construct": "tissue or cells expressing the receptor of interest were suspended in incubation buffer; from tissue; host or cells: guinea-pig tissue (which tissue is not visible)", "T2 sequence (O70528 whole entry)": "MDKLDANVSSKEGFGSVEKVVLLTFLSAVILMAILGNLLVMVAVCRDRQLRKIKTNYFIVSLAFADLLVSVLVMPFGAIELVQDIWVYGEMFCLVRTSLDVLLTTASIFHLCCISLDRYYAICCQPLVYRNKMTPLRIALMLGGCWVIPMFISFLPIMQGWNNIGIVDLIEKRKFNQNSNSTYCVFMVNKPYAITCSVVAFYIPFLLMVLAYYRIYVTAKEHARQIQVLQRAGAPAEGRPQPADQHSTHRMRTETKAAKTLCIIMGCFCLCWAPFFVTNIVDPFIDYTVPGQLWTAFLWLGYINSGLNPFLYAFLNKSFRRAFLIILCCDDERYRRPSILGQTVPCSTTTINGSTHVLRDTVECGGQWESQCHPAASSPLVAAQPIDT", "assay": "Radio-ligand binding assay 5-HT4", "parameters": "species or system Guinea pig", "description": "as §1, §2"}, "[4]": {"target": "5-HT7 receptor (Homo sapiens, UniProt P34969)", "sequence (P34969 whole entry)": "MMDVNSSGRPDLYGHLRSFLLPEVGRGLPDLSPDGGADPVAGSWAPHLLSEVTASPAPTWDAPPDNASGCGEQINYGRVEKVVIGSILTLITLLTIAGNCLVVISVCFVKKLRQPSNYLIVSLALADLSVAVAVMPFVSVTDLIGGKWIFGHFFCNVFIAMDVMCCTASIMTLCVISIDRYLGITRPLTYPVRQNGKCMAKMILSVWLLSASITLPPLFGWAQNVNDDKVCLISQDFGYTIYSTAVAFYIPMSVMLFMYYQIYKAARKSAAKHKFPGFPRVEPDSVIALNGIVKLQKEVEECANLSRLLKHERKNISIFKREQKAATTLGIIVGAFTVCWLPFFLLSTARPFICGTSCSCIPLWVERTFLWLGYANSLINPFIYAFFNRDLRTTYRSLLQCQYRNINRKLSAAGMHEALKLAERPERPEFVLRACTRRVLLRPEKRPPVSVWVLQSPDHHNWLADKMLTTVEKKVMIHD", "assay": "Radio-ligand binding assay 5-HT7", "conditions": "10 μM compound; [3H] LSD 2.5 nM; human rec. CHO cells", "description": "as §1, §2"}, "[5]": {"test_system": "antigen-induced arthritis", "assay": "Antigen-induced arthritis (AIA) in the rat, knee-joint swelling", "assay_type": "in vivo", "description": "Antigen-Induced Arthritis (AIA) is a Well-Documented Animal Experimental Model of human arthritic disease (Dumonde, D. C. and Glynn, L. E. (1962), Br. J. Exp. Pathol. 43:373-383). In this model, inflammation is induced by immunization followed by an intra-articular (knee-joint) challenge with the antigen. This causes an increase in knee diameter due to the formation of a pannus, i.e. hyperproliferative synovial tissue, which spreads over the articular cartilage into the bone, leading to erosion and destruction of the joint tissue (Carpenter, T. A. et al. (1994), Skeletal Radiol. 23:429-437).\nAIA was applied for a short-term in vivo evaluation of our test compounds, with treatment during 4 days.\nFemale Dark Agouti rats were sensitized subcutaneously at the tail root with 1 mg mBSA (Sigma A1009) dissolved in 50 μl saline and emulsified in 50 μl Freund's complete adjuvant (Sigma F5881). Eleven days later the rats were challenged (unilateral) with an intra-articular (i.a.) injection of 75 μg mBSA dissolved in 50 μl saline. The procedures were carried out under a brief Isoflurane anaesthesia. Animals were treated once or twice daily with oral administration of N-(2-chloro-3,4-dimethoxybenzylideneamino)guanidine in saline. […] The knee-joint swelling was measured daily with an odimeter/calliper; the body weight was recorded before arthritis induction and at the end of the experiment. […]"}, "[6]": {"test_system": "formalin-induced pain", "assay": "Formalin test, inflammatory pain model", "assay_type": "in vivo, rat", "conditions": "30 mg/kg orally 60 min before formalin", "description": "Inflammatory pain is associated with tissue damage and the resulting inflammatory process is related to conditions such as arthritis and many autoimmune disease states. The formalin test in rats is a widely used tool when studying inflammatory pain in animals (Dubuisson, D., and Dennis, S. G. (1977), Pain 4:161-174; Wheeler-Aceto, H., et al. (1990), Pain 40:229-238). This model allows the study of two different types of pain that appears in two separate phases: phase 1 which is a direct stimulation of the nerve by the formalin and thus resembles the acute pain, followed by phase 2 which is an inflammatory-reaction induced pain similar to the pain in, e.g., arthritis. […]\nIn accordance with the literature (Sufka K J, et al., Eur J Pain (1998), 2(4):351-8; Maione S, et al., Br. J. Pharmacol. 2007; 150:766-781), nociceptive response was monitored in consecutive 5-min periods for 60 min following formalin injection. In particular, nociceptive responses were recorded by measuring the cumulative time of lifting, licking, shaking and flinching of the injected paw per unit time (5 minutes). The nociceptive response was measured both as every 5 minutes and as total time of the first phase (0-15 min) and the second phase (15-60 min). […]"}}}
{"smiles": "COc1ccc(C=NNC(=N)N)c(Cl)c1OC", "note": "[N-(2-chloro-3,4-dimethoxybenzylideneamino)guanidine]", "values": [{"measurement": "inhibition at 10 µM", "setting": "[1]", "value": 17, "unit": "%"}, {"measurement": "inhibition at 10 µM", "setting": "[2]", "value": 45, "unit": "%"}, {"measurement": "inhibition at 10 µM", "setting": "[3]; 10 μM compound, [3H] GR113808 0.2 nM, guinea pig striata", "value": 99, "unit": "%"}, {"measurement": "Ki", "setting": "[3]; 10 different concentrations, Cheng-Prusoff, FIG. 1", "value": 276, "unit": "nM"}, {"measurement": "inhibition at 10 µM", "setting": "[4]", "value": 53, "unit": "%"}, {"measurement": "effect in AIA at administration one day after disease induction", "setting": "[5]; administration started one day after disease induction", "value": "therapeutic effect"}, {"measurement": "knee-joint swelling in AIA", "setting": "[5]; oral, 1-10 mg/kg once or twice daily for 4 days from day of challenge, FIG. 5", "value": "reproducibly reduce joint swelling"}, {"measurement": "nociceptive response, first phase (0-15 min)", "setting": "[6]", "value": "without significantly influencing"}, {"measurement": "nociceptive response, phase 2 (15-60 min), inflammatory pain", "setting": "[6]; FIG. 6", "value": "significantly reduced the inflammatory pain response"}]}
